Source: US20220153780A1, “SALT FORMS OF S-(N, N-DIETHYLCARBAMOYL)GLUTATHIONE” (Tonix Pharma Holdings Limited, priority 2019, published 2022)
Converted amounts (≈) assume the structure as drawn. Read-outs that look alike come from different tables or passages of the source.

What was measured:
[1] = Solubility of free carbamathione in buffer by portion-wise addition of solid; format: physicochemical; settings: thermodynamic from solid, read-out: Solubility TNX1001
Experimental: The solubility of free carbamathione was determined to be between 20 and 30 mg/mL, as 100 mg of free carbamathione dissolved completely in 5 mL of buffer, but a saturated solution was formed when a subsequent 50 mg aliquot of solid was added to the solution.
The solubility of free carbamathione was determined to be between 10 and 20 mg/mL, as 50 mg of free carbamathione dissolved completely in 5 mL of buffer, but a saturated solution was formed when a subsequent 50 mg aliquot of solid was added to the solution.

C57BL/6J mice = test: Voluntary ethanol intake in chronic intermittent ethanol (CIE) exposed and air-exposed (CTL) mice, limited access drinking; format: in vivo; settings: for weekly average ethanol intake vs vehicle: nondependent (CTL) mice; for ethanol intake as percent change from vehicle group: Test cycles 5 and 7
Experimental: Following the established protocol, adult male C57BL/6J mice (N=96) were trained to drink ethanol in a limited access (2 hour/day) free-choice (15% v/v ethanol vs. water) drinking procedure. After four weeks, stable baseline level of intake was established, and mice were separated into two groups. One group of mice (CIE group) was exposed to chronic intermittent ethanol (CIE) vapor exposure in inhalation chambers (16 hour/days x 4 days). The remaining mice (CTL group) were treated similarly but exposed to air in inhalation chambers. After a 72 hour forced abstinence period, all mice resumed ethanol drinking in the same limited access paradigm for a 5-day test period. This pattern of weekly CIE (or air) exposure cycles with intervening weekly test drinking cycles was repeated for seven cycles following procedures previously published (Becker and Lopez, 2004; Griffin et al., 2009; Lopez and Becker, 2005).
All mice received intraperitoneal (IP) administration of saline 30 min prior to the start of daily drinking sessions during baseline and the early test cycles to acclimate the animals to the handling procedure. After the fourth ethanol intake test cycle, mice were further divided into carbamathione dose treatment conditions (N=10-12/group).
After Test 4, CIE and CTL mice were separated in dose groups for Test 5 (N=11-12/group), with the groups equated for intake during Test 4. Mice received intraperitoneal (IP) injections of carbamathione (100, 200 or 400 mg/kg) or vehicle (0.25% carboxymethyl cellulose, CMC in water) 30 min before drinking. The carbamathione IP injections were administered as a suspension. Ethanol intake during Test 5 was averaged for the week and analyzed by ANOVA, with Group (CTL, CIE) and carbamathione dose (0, 100, 200, 400 mg/kg) as between-subject factors. ANOVA indicated a significant main effect of Group [F(1,78)=53.33; p<0.0001], reflecting a higher level of ethanol intake in CIE mice compared to CTL mice (* in FIG. 4).
The efficacy of carbamathione in reducing ethanol intake in mice was next compared to the efficacy of disulfiram, an FDA approved drug used in the treatment of chronic alcoholism. The mice were exposed to a sixth cycle of CIE (or air) and evaluated for intake with the same procedure used in the previous test cycle, except that disulfiram was included as a comparator drug. Mice that received vehicle or 400 mg/kg carbamathione continued with this treatment schedule. Mice that received 100 or 200 mg/kg carbamathione were combined and randomly redistributed to receive 75 or 100 mg/kg disulfiram during the first two days and these doses were increased to 125 and 150 mg/kg disulfiram, respectively for the last three days of Test 6. Disulfiram doses were prepared with the same vehicle used for carbamathione (i.e., 0.25% CMC). Separate analyses were conducted to evaluate the effect of carbamathione and disulfiram treatment. Data presented in FIG. 5 show the weekly average intake for CIE and CTL mice that received vehicle or carbamathione. […] Data for mice that received vehicle, 75, or 100 mg/kg of disulfiram were averaged over the first two days of the week. […]
Mice were evaluated again for voluntary ethanol intake after a seventh and final CIE or air exposure cycle. During the five days of Test 7, mice that received vehicle injections from the start of the study continued to receive vehicle injections. Mice that received carbamathione and disulfiram in Test cycles 5 and 6 received vehicle injections in Test 7 to evaluate any long-lasting effect of previous treatment (drug washout evaluation). Finally, mice that received 400 mg/kg carbamathione continued treatment with a higher dose of carbamathione (600 mg/kg). Analysis of the groups that received vehicle injections during Test 7 was performed with Group (CIE, CTL) and previous treatment (vehicle, low, or high disulfiram dose) as main factors. This analysis indicated a significant main effect of Group [F(1,59)=25.36; p<0.0001]. […] (data not shown). […]

[2] = test system: nucleus accumbens (NAc) and prefrontal cortex (PFC); settings: intravenous administration, rats, Faiman et al., 2013; cited from earlier work
ALDH2 = settings: Faiman et al., 2013; cited from earlier work

## CCN(CC)C(=O)SCC(NC(=O)CCC(N)C(=O)O)C(=O)NCC(=O)O (stereo not drawn) [carbamathione, S—(N,N-diethylcarbamoyl)glutathione]
[1]; aqueous buffer, pH 4.5, 25° C.
  solubility: 10 to 20 mg/mL (≈ 24.6 to 49.2 mM)
[1]; aqueous buffer, pH 6.8, 25° C.
  solubility: 20 to 30 mg/mL (≈ 49.2 to 73.8 mM)
[1]; simulated gastric fluid, pH 1.2, 25° C.
  solubility: 25 to 33 mg/mL (≈ 61.5 to 81.2 mM)
C57BL/6J mice; 200, 400 and 600 mg/kg, percent change from vehicle
  reduction in ethanol intake, CTL mice compared to CIE-exposed mice: significantly larger reduction in ethanol intake
C57BL/6J mice; Test 5, 400 mg/kg IP in 0.25% CMC, 30 min before drinking, CIE and CTL mice together
  weekly average ethanol intake vs vehicle and 100 mg/kg: significantly lower ethanol intake
C57BL/6J mice; Test 5, 200 mg/kg IP
  weekly average ethanol intake vs vehicle: significantly reduced ethanol intake
C57BL/6J mice; Test 5, 400 mg/kg IP
  weekly average ethanol intake vs vehicle: significantly reduced ethanol intake
C57BL/6J mice; Test 6, 400 mg/kg IP, p=0.07
  weekly average ethanol intake vs vehicle, pair-wise comparison: trend for lower ethanol intake
C57BL/6J mice; Test 7, 600 mg/kg IP, CIE and CTL groups, 600 mg/kg
  ethanol intake vs vehicle: significantly reduce ethanol intake
C57BL/6J mice; CIE mice, 600 mg/kg (only the highest dose)
  ethanol intake as percent change from vehicle group: significant decrease in ethanol intake
C57BL/6J mice; CTL mice, 200, 400 and 600 mg/kg
  ethanol intake as percent change from vehicle group: significant reduction in voluntary ethanol intake
[2]
  GABA: decreases
  dopamine (DA): increases
  glutamate (Glu): biphasic effect
ALDH2
  inhibitory activity of ALDH2: devoid of inhibitory activity
